Results on eight compounds are retold here after patent US20260216348A1, “IRAK DEGRADATION AGENT AND USE THEREOF” (Increland, priority 2023, published 2026).

The target in assay [1] is T1, IRAK4 (Homo sapiens, UniProt Q9NWZ3).
T1 construct: Effect of the Compounds on IRAK4 Protein Degradation in THP1 Cells; endogenous in cells; host or cells: THP-1 cells
T1 sequence (Q9NWZ3 1-460): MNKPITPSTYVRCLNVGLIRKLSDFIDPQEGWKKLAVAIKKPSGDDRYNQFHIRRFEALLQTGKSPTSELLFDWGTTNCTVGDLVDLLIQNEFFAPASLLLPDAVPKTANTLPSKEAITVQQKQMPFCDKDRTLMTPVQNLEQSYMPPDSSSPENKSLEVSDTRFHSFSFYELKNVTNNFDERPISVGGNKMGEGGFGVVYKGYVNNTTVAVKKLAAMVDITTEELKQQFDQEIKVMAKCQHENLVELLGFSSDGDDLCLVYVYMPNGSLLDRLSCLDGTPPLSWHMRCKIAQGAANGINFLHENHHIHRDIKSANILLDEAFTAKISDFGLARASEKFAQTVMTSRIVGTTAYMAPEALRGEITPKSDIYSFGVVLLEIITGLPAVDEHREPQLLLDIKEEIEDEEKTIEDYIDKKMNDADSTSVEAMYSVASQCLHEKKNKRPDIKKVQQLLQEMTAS
Description: IRAK4 protein degradation in THP1 cells (Western blot). Type of assay: cell-based. Conditions: THP-1 cells, 24 h. The essentials: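 THP-1 cells (2×10^5/well) were treated with 5-fold serial compound dilutions for 24 h at 37 °C, then lysed with proteasome/phosphatase inhibitors. IRAK4 was detected by Western blot with chemiluminescence and semi-quantified by densitometry. DC50 came from the concentration–response.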
(In western blotting, separated proteins are transferred to a membrane and probed.)

In assay [2] the test system is R848-induced IL-6 secretion in human peripheral blood mononuclear cells (PBMCs). Description: Inhibition of R848-induced IL-6 secretion in human PBMCs (IL-6 ELISA). In kind it is cell-based. The following applies: PBMC, R848 2.5 μg/mL, 20 h pre-incubation, 24 h stimulation. In outline: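 Human PBMCs at 1.25×10^6 cells/mL were preincubated for 20 h at 37 °C with compound, starting at 1 μM in 4-fold dilutions. They were then stimulated with 2.5 μg/mL R848 for 24 h. Supernatant IL-6 was measured by ELISA at OD450 against a standard curve.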
In general terms: ELISA stands for enzyme-linked immunosorbent assay.

Assay [3] has as its system DSS-induced enteritis model. Description: DSS-induced enteritis (colitis) model. In kind it is in vivo, mice. The following applies: po, QD, Model 10.33 ± 1.11, Mean ± SD, n = 7. The text has this: The experimental mice were pre-acclimatized in the animal facility for one week; at the beginning of the experiment, the mice were given medication intragastrically daily according to their body weight. After the completion of intragastric administration in each group, mice had direct access to water bottles for free drinking. The blank group received normal water, while the other groups received pre-prepared DSS water. Each afternoon, the mice's abdomens were massaged to stimulate defecation, and one fecal pellet was collected onto a white porcelain plate. Fecal consistency was judged and recorded according to Table 30. The fecal occult blood qualitative test kit (Yuanye Biotechnology, #R24187-300T) was used to test for occult blood in feces and the results were interpreted according to Table 31.

Assay [4] concerns IMQ psoriasis model. Description: IMQ (imiquimod)-induced psoriasis model. Type of assay: in vivo, BALB/c mice. Conditions: QD, Mean ± SD, n = 7; for PASI Score d 6: Model 8.85 ± 1.66; for ΔSkin Thickness Change (μm) d 6: Model 80.95 ± 6.16. On the procedure: Male BALB/c mice, aged 6-8 weeks, were randomly divided into 9 groups after 1 week of acclimatization: blank control group, imiquimod model group (IMQ group, corresponding to the model groups in FIGS. 1 and 2), clobetasol propionate cream group (CLO group), TYKI (BMS-986165) group, IRAK4 protein degrader KT-474 (from patent WO2020113233) group (100 mg/kg), and the compound of the present disclosure (at an appropriate dose), with 6-7 mice in each group. One day before modeling, the hair on the backs of the mice was removed with depilatory cream, with a depilated area of 2×2 cm^2. On the day of modeling, IMQ cream was used for modeling, and the corresponding drugs were administered intragastrically for treatment. The compound of the present disclosure (at an appropriate dose) was administered intragastrically once daily, and IMQ cream was applied to the hairless area on the back and left ear of mice 2 h after the first administration. […] The blank group and the IMQ group were administered with vehicle intragastrically twice daily (in the morning and evening), with an 8-h interval between the two intragastric administrations. At 2 h after the first intragastric administration, vaseline and IMQ cream were applied topically to the depilated back and ears of the mice, respectively. The dosage of IMQ cream administered to the depilated area on the back and the left ear was 80 mg and 10 mg, respectively, and the mice in each group were administered the cream for 5 consecutive days.
Reference was made to the Psoriasis Area and Severity Index (PASI) scoring criteria. The psoriasis, erythema, and thickness of skin lesions on the back were scored from 0 to 4 every morning from day 1 of modeling, with the scoring criteria as shown in Table 28. The 3 were added up to obtain a total score, i.e., a total PASI score. The ear thickness of the left ear of the mouse was measured using a digital vernier caliper three times every morning from day 1 of modeling, to obtain a mean value.

pIC50: −log10 of the molar value.

In general, DC50 refers to the concentration giving 50% degradation. The pIC50 is the negative decadic logarithm of the IC50, by convention in mol/L. A low value points to a large IC50. As to `CN(C)c1cc2nn([C@H]3CC[C@H](CN4C[C@@H](F)[C@H](n5cc6cc(C7CCC(=O)NC7=O)ccc6n5)C4)CC3)cc2cc1NC(=O)c1cnn2cccnc12` (stereo partly shown) [TM-244], the DC50 in assay [1] stood at 3.21 nM. The compound also showed a pIC50 in assay [2] of 7.84.

Consider `CN(C)c1cc2nn([C@H]3CC[C@H](CN4C[C@@H](n5cc6cc(N7CCC(=O)NC7=O)ccc6n5)[C@@H](F)C4)CC3)cc2cc1NC(=O)c1cnn2cccnc12` [TM-205], for which the “DAI Score d 8” value in assay [3] (3 mpk) stood at 4.86 ± 1.55; in assay [3] (10 mpk) it was 3.29 ± 1.67; in assay [3] (30 mpk) it was 2.71 ± 0.70. In addition, the DC50 in assay [1] came to 1.56 nM. This compound also gave a pIC50 in assay [2] of 8.42. Further, the “PASI Score d 6” value worked out at 7.29 ± 1.99 in assay [4] (3 mg/kg), 6.75 ± 1.28 in assay [4] (10 mg/kg) and 4.84 ± 0.80 in assay [4] (30 mg/kg). Further, the “ΔSkin Thickness Change (μm) d 6” value in assay [4] (3 mg/kg) came to 65.71 ± 10.23 μm; in assay [4] (10 mg/kg), 52.62 ± 9.59 μm; in assay [4] (30 mg/kg) it was 53.10 ± 12.95 μm.

As to `CN(C)c1cc2nn([C@H]3CC[C@H](CN4C[C@H](F)[C@@H](n5cc6cc(C7CCC(=O)NC7=O)c(F)cc6n5)C4)CC3)cc2cc1NC(=O)c1cnn2cccnc12` (stereo partly shown) [TM-249], half-maximal degradation in assay [1] (DC50) was put at 2.38 nM. Further, the pIC50 in assay [2] is 8.36.

In the case of `CN(C)c1cc2nn([C@H]3CC[C@H](CN4C[C@@H](n5cc6cc(C7CCC(=O)NC7=O)c(F)cc6n5)[C@@H](F)C4)CC3)cc2cc1NC(=O)c1cnn2cccnc12` (stereo partly shown) [TM-241], in assay [1], the DC50 amounted to 11.7 nM. The pIC50 in assay [2] is 8.04.

`CN(C)c1cc2nn([C@H]3CC[C@H](CN4C[C@@H](F)[C@@H](n5cc6cc(C7CCC(=O)NC7=O)c(F)cc6n5)C4)CC3)cc2cc1NC(=O)c1cnn2cccnc12` (stereo partly shown) [TM-240] came in with a DC50 in assay [1] of 2.61 nM. In addition, in assay [2], the pIC50 was 8.57.

As to `CN(C)c1cc2nn([C@H]3CC[C@H](CN4CCC(n5cc6c(F)cc(N7CCC(=O)NC7=O)cc6n5)CC4)CC3)cc2cc1NC(=O)c1cnn2cccnc12` [TM-174], the entries for the “DAI Score d 8” value in assay [3] (3 mpk), in assay [3] (10 mpk) and in assay [3] (30 mpk) were 3.57 ± 2.26, 2.71 ± 1.39 and 2.71 ± 0.70, respectively. For the same compound, the DC50 in assay [1] was 1.24 nM. In assay [2], this compound had a pIC50 of 8.50. The “PASI Score d 6” value stood at 6.69 ± 1.07 in assay [4] (3 mg/kg), 7.31 ± 1.87 in assay [4] (10 mg/kg) and 4.38 ± 1.24 in assay [4] (30 mg/kg). Also, the “ΔSkin Thickness Change (μm) d 6” value is 58.10 ± 17.31 μm in assay [4] (3 mg/kg), 59.29 ± 18.23 μm in assay [4] (10 mg/kg) and 43.81 ± 16.66 μm in assay [4] (30 mg/kg).

Compound `CN(C)c1cc2nn([C@H]3CC[C@H](CN4C[C@@H](F)[C@H](n5cc6cc(C7CCC(=O)NC7=O)c(F)cc6n5)C4)CC3)cc2cc1NC(=O)c1cnn2cccnc12` (stereo partly shown) [TM-245] came in with a DC50 in assay [1] of 1.41 nM. Moreover, the pIC50 in assay [2] is 8.40.

`CN(C)c1cc2nn([C@H]3CC[C@H](CN4CC[C@@H](n5cc6cc(C7CCC(=O)NC7=O)c(F)cc6n5)[C@@H](F)C4)CC3)cc2cc1NC(=O)c1cnn2cccnc12` (stereo partly shown) [TM-135]: in assay [1], the DC50 was 1.23 nM. In assay [2], this compound had a pIC50 of 8.34.
